{"source": "the NIST ThermoML archive (doi:10.1016/j.fluid.2015.11.037)", "key": {"[1]": {"test": "activity coefficient (dimensionless); of the first substance listed, at infinite dilution; xn = mol fraction of the nth substance listed", "conditions": "Liquid, x1 = 0"}, "[2]": {"conditions": "Liquid, Ebulliometric method (Recirculating still)"}, "[3]": {"conditions": "293.15 K, 46.85 kPa, comparative ebulliometry"}, "[4]": {"conditions": "303.15 K, 69.6 kPa, comparative ebulliometry"}, "[5]": {"conditions": "311.15 K, 93.62 kPa, comparative ebulliometry"}, "[6]": {"conditions": "333.15 K, 100 kPa, Rayleigh distillation"}, "[7]": {"conditions": "303.15 K, 100 kPa, Rayleigh distillation"}, "[8]": {"conditions": "313.15 K, 100 kPa, Rayleigh distillation"}, "[9]": {"conditions": "323.15 K, 100 kPa, Rayleigh distillation"}}, "note": "Numbers after ± are expanded uncertainties.", "data": [{"molecule": "CCCO", "note": "[propan-1-ol] + ClCCl", "values": [{"measurement": "activity coefficient", "setting": "[1]; [3]", "value": "8.38 ± 0.7"}, {"measurement": "activity coefficient", "setting": "[1]; [4]", "value": "6.99 ± 0.61"}, {"measurement": "activity coefficient", "setting": "[1]; [5]", "value": "5.98 ± 0.51"}]}, {"molecule": "ClCCl", "note": "[dichloromethane] + CCCO", "values": [{"measurement": "activity coefficient", "setting": "[1]; 283.15 K, 100 kPa, Inert gas stripping", "value": "1.99 ± 0.12"}, {"measurement": "activity coefficient", "setting": "[1]; 293.15 K, 100 kPa, Inert gas stripping", "value": "2 ± 0.16"}, {"measurement": "activity coefficient", "setting": "[1]; 303.15 K, 100 kPa, Inert gas stripping", "value": "2.02 ± 0.16"}, {"measurement": "activity coefficient", "setting": "[1]; 313.15 K, 100 kPa, Inert gas stripping", "value": "2.05 ± 0.16"}, {"measurement": "activity coefficient", "setting": "[1]; 323.15 K, 100 kPa, Inert gas stripping", "value": "2.04 ± 0.16"}, {"measurement": "activity coefficient", "setting": "[1]; 333.15 K, 100 kPa, Inert gas stripping", "value": "2.02 ± 0.16"}, {"measurement": "activity coefficient", "setting": "[1]; [6]", "value": "2.06 ± 0.16"}]}, {"molecule": "CCCCO", "note": "[butan-1-ol] + ClCCl", "values": [{"measurement": "activity coefficient", "setting": "[1]; 293.15 K, 100 kPa, differential distillation", "value": "7.68 ± 0.65"}, {"measurement": "activity coefficient", "setting": "[1]; 303.15 K, 100 kPa, differential distillation", "value": "6.18 ± 0.51"}, {"measurement": "activity coefficient", "setting": "[1]; 311.15 K, 100 kPa, differential distillation", "value": "5.43 ± 0.57"}]}, {"molecule": "CO", "note": "[methanol] + ClCCl", "values": [{"measurement": "activity coefficient", "setting": "[1]; [3]", "value": "13.4 ± 1.3"}, {"measurement": "activity coefficient", "setting": "[1]; [4]", "value": "11.6 ± 1.1"}, {"measurement": "activity coefficient", "setting": "[1]; [5]", "value": "9.86 ± 0.89"}]}, {"molecule": "ClCCl", "note": "[dichloromethane] + CCCCO", "values": [{"measurement": "activity coefficient", "setting": "[1]; 283.15 K, 100 kPa, inert gas stripping", "value": "1.85 ± 0.1"}, {"measurement": "activity coefficient", "setting": "[1]; 293.15 K, 100 kPa, inert gas stripping", "value": "1.86 ± 0.11"}, {"measurement": "activity coefficient", "setting": "[1]; 303.15 K, 100 kPa, inert gas stripping", "value": "1.86 ± 0.11"}, {"measurement": "activity coefficient", "setting": "[1]; 313.15 K, 100 kPa, inert gas stripping", "value": "1.86 ± 0.11"}, {"measurement": "activity coefficient", "setting": "[1]; 323.15 K, 100 kPa, inert gas stripping", "value": "1.83 ± 0.1"}, {"measurement": "activity coefficient", "setting": "[1]; 333.15 K, 100 kPa, inert gas stripping", "value": "1.76 ± 0.1"}]}, {"molecule": "CCO", "note": "[ethanol] + ClCCl", "values": [{"measurement": "activity coefficient", "setting": "[1]; [3]", "value": "9.56 ± 0.78"}, {"measurement": "activity coefficient", "setting": "[1]; [4]", "value": "7.98 ± 0.65"}, {"measurement": "activity coefficient", "setting": "[1]; [5]", "value": "7.09 ± 0.58"}]}, {"molecule": "ClCCl", "note": "[dichloromethane]", "values": [{"measurement": "vapor or sublimation pressure", "setting": "[2]; 285.89 K", "value": "34.66 ± 0.065", "unit": "kPa"}, {"measurement": "vapor or sublimation pressure", "setting": "[2]; 287.58 K", "value": "37.33 ± 0.068", "unit": "kPa"}, {"measurement": "vapor or sublimation pressure", "setting": "[2]; 289.94 K", "value": "41.33 ± 0.073", "unit": "kPa"}, {"measurement": "vapor or sublimation pressure", "setting": "[2]; 292.12 K", "value": "45.33 ± 0.078", "unit": "kPa"}, {"measurement": "vapor or sublimation pressure", "setting": "[2]; 294.15 K", "value": "49.33 ± 0.083", "unit": "kPa"}, {"measurement": "vapor or sublimation pressure", "setting": "[2]; 296.05 K", "value": "53.33 ± 0.09", "unit": "kPa"}, {"measurement": "vapor or sublimation pressure", "setting": "[2]; 298.41 K", "value": "58.66 ± 0.095", "unit": "kPa"}, {"measurement": "vapor or sublimation pressure", "setting": "[2]; 300.61 K", "value": "63.99 ± 0.1", "unit": "kPa"}, {"measurement": "vapor or sublimation pressure", "setting": "[2]; 302.67 K", "value": "69.33 ± 0.11", "unit": "kPa"}, {"measurement": "vapor or sublimation pressure", "setting": "[2]; 304.61 K", "value": "74.66 ± 0.12", "unit": "kPa"}, {"measurement": "vapor or sublimation pressure", "setting": "[2]; 306.43 K", "value": "79.99 ± 0.12", "unit": "kPa"}, {"measurement": "vapor or sublimation pressure", "setting": "[2]; 308.17 K", "value": "85.33 ± 0.13", "unit": "kPa"}, {"measurement": "vapor or sublimation pressure", "setting": "[2]; 309.82 K", "value": "90.66 ± 0.13", "unit": "kPa"}, {"measurement": "vapor or sublimation pressure", "setting": "[2]; 311.39 K", "value": "95.99 ± 0.14", "unit": "kPa"}]}, {"molecule": "ClCCl", "note": "[dichloromethane] + CCO", "values": [{"measurement": "activity coefficient", "setting": "[1]; [7]", "value": "2.29 ± 0.18"}, {"measurement": "activity coefficient", "setting": "[1]; [8]", "value": "2.3 ± 0.18"}, {"measurement": "activity coefficient", "setting": "[1]; [9]", "value": "2.29 ± 0.18"}, {"measurement": "activity coefficient", "setting": "[1]; [6]", "value": "2.27 ± 0.18"}, {"measurement": "activity coefficient", "setting": "[1]; 343.15 K, 100 kPa, Rayleigh distillation", "value": "2.18 ± 0.25"}]}, {"molecule": "ClCCl", "note": "[dichloromethane] + CO", "values": [{"measurement": "activity coefficient", "setting": "[1]; 293.15 K, 100 kPa, Rayleigh distillation", "value": "2.84 ± 0.24"}, {"measurement": "activity coefficient", "setting": "[1]; [7]", "value": "2.87 ± 0.23"}, {"measurement": "activity coefficient", "setting": "[1]; [8]", "value": "2.87 ± 0.23"}, {"measurement": "activity coefficient", "setting": "[1]; [9]", "value": "2.83 ± 0.23"}, {"measurement": "activity coefficient", "setting": "[1]; [6]", "value": "2.81 ± 0.22"}]}]}
